Source: patent publication US20260137696A1, “Compositions Comprising an Inhibitor of Galectin-3” (University of Liverpool, priority 2023, published 2026)

Legend:
[1] = test system: Salmonella typhimurium strain TA98; assay: Ames test (genotoxicity); type: cell-based; conditions: TA98, up to 1 mM tested, with or without metabolic activation (S9)
Procedure: (§1) Mutagenic potential of the compound of Formula I was assessed by Ames test in two Salmonella typhimurium strains TA98 and TA100 without and with metabolic activation (S9).
(§2) Effect of the compound inhibitors on genotoxicity was determined using the Salmonella typhimurium strains of TA 98 and TA 100 in the presence and absence of metabolic activation (S9). Each test concentration included the vehicle and positive controls. Briefly, the compounds were serially diluted in 24-well plates with or without the presence metabolic activation system (S9) and was incubated for 90 min at 37° C. in 250 rpm in a orbital shaking incubator. TA98 and TA100 were then introduced to the wells for 90 min. 50 μL aliquots from each well was dispensed into 384 well plates and incubated for 48 hrs at 37° C. in an incubator before positive wells were scored.

[2] = test system: Salmonella typhimurium strain TA100; assay: Ames test (genotoxicity); type: cell-based; conditions: TA100, up to 1 mM tested, with or without metabolic activation (S9)
Procedure: as §1, §2

[3] = test system: THP-1 differentiated macrophages; assay: Galectin-3-induced pro-inflammatory cytokine secretion, cytokine ELISA; type: cell-based; conditions: Galectin-3 10 μg/ml, various concentrations
Procedure: Secretion of pro-inflammatory cytokines IL-6 (FIG. 7A), IL-1β (FIG. 7B) and TNFα (FIG. 7C) from THP-1 differentiated macrophages was analysed in the absence or presence of Galectin-3 (10 μg/ml) and various concentrations of the compound of Formula I by cytokine ELISA.
THP-1 monocytes (5×10^5 cells/ml) were differentiated into macrophages by incubation with 10 ng/ml Phorbol 12-myristate-13-acetate (PMA) for 48 h at 37° C. The differentiated cells were washed gently with medium before introduction of fresh medium without or with 10 μg/ml Galectin-3, and/or different concentrations of the inhibitors for 24 h at 37° C. The culture medium was collected and the concentrations of IL-6, TNFα and IL1β in the medium were measured by IL-6, TNFα and IL1β ELISA kits according to the manufacture's protocols.

[4] = test system: SW620^Gal3+ cells; assay: Tumour growth and metastasis in chick chorioallantoic membrane (CAM) model; type: in vivo, chicken embryos
Procedure: (§3) Effect of the compound of Formula I on tumour formation, growth and metastasis of SW620Gal3+ and SW620Gal3− cells was assessed in the chick chorioallantoic membrane (CAM) model. Galectin-3-expressing SW620^Gal3+ and Galectin-3-suppressed SW620^Gal3− cells were transfected with pHIV-Luc-ZsGreen vector and engrafted to the CAM on embryonic day 7. The compound of Formula I (24 μM) was injected into the allantoic cavity on the following day and the tumour formation and growth was analysed by fluorescence microscopy (FIG. 10A) and IVIS imaging (FIGS. 10B-FIG. 10D) on embryonic day 14. Seventy percent eggs grafted with Galectin-3-expressing SW620^Gal3+ cells formed various sized tumours in the absence of Formula I while the number of eggs formed in the Formula I treated group was reduced to 30%.
as §3, with “SW620Gal3−” for “SW620Gal3− cells”, “SW620^Ga13−” for “SW620^Gal3−”
(§4) Fertilised white leghorn chicken eggs were obtained from Lees Lane Poultry (Wirral, UK). The eggs were windowed on embryonic Day 3 with 4 ml albumin removed. The eggs were incubated at 37° C. in 35-40% humidity until embryonic day 7. ZsGreen- and luciferase-expressing SW620Gal3+ and SW620Gal3− cells (2.5×10^6) were then embedded on the chorioallantoic membrane (CAM). On embryonic Days 8 and 11, the inhibitors (24 μM) or control DMSO/PBS were injected into the allantoic cavity. The eggs were incubated until embryonic Day 14 The eggs were imaged using a Microscope as well as by IVIS. The embryos were then immediately decapitated. Organs were examined under fluorescence microscope for presence of ZsGreen-labelled tumour cells. Ethical approval for the experiments using chick embryos up to embryonic Day 14 was obtained from the Liverpool Animal Welfare and Ethical Review Body.

[5] = test system: SW620^Gal3− cells; assay: as above; type: in vivo, chicken embryos; conditions: 24 μM; Galectin-3-suppressed SW620^Gal3−
Procedure: as §3
as §3, with “SW620Gal3−” for “SW620Gal3− cells”, “SW620^Ga13−” for “SW620^Gal3−”
as §4

## C[C@H]1COc2c(N3CCN(C)CC3)c(F)cc3c(=O)c(C(=O)NNc4ccc(N)cc4)cn1c23 [Formula I]
[1]
  mutagenic activity: no mutagenic activity
[2]
  mutagenic activity: no mutagenic activity
[3]
  Galectin-3-induced secretion of IL-1β: dose-dependent inhibition
  Galectin-3-induced secretion of IL-6: dose-dependent inhibition
  Galectin-3-induced secretion of TNFα: dose-dependent inhibition
[4]; 24 μM into allantoic cavity, embryonic day 14, 70% without Formula I
  number of eggs that formed tumours: 30%
[4]; 24 μM, IVIS imaging, embryonic day 14, vs group without Formula I
  reduction of luminescence intensity in the tumours: 66%
[4]; 24 μM, 25% in the absence of Formula I
  tumours showing metastasis to other organs: none
[5]
  tumour formation or growth: no effect
